Data as given in patent US20230212120A1, “SMALL MOLECULE INHIBITORS OF GRK5 AND GRK5 SUBFAMILY MEMBERS AND USES THEREOF” (The Regents of the University of Michigan, priority 2020, published 2023).
In brackets after ≈: the same amount, converted by molar mass. Several values for one entry are separate records, joined by “and”; a condition that tells them apart may be missing. Equal values may be shown once. Read-outs that look alike come from different tables or passages of the source. Each block holds one compound with its values, some of them ahead of it.

What was measured:
PKA = PKA (Homo sapiens, UniProt P17612); assay: PKA inhibition assay (ADP-Glo); format: biochemical
Protocol: The PKA inhibition assays were performed with the ADP-Glo system (Promega Corporation) according to the manufactory's instruction. […] After the initial reaction, ADP-Glo reagent was added to the reaction and allowed to incubate for an additional 40 min. Lastly, the kinase detection reagent was added and allowed to incubate for 30 min, and the luminescence was measured with a FlexStation 3 Multi-mode Microplate Reader (Molecular Devices). All data was analyzed in the same way as GRK inhibition assay. Experiments were performed three times in duplicate.
Standard control compounds are run during each assay to assess consistency across time, experimenters, and subtle changes in assay conditions that are sometimes required to keep some of the compounds soluble and disperse (such as through addition of DDM or 3% DMSO). Paroxetine were used as controls for GRK2 and PKA, and CCG215022 for GRK5.

bovine GRK2 = target: T1, bovine GRK2 (Bos taurus, UniProt P21146); assay: radiometric GRK2 inhibition assay (tubulin phosphorylation)
T1 sequence (P21146 1-689): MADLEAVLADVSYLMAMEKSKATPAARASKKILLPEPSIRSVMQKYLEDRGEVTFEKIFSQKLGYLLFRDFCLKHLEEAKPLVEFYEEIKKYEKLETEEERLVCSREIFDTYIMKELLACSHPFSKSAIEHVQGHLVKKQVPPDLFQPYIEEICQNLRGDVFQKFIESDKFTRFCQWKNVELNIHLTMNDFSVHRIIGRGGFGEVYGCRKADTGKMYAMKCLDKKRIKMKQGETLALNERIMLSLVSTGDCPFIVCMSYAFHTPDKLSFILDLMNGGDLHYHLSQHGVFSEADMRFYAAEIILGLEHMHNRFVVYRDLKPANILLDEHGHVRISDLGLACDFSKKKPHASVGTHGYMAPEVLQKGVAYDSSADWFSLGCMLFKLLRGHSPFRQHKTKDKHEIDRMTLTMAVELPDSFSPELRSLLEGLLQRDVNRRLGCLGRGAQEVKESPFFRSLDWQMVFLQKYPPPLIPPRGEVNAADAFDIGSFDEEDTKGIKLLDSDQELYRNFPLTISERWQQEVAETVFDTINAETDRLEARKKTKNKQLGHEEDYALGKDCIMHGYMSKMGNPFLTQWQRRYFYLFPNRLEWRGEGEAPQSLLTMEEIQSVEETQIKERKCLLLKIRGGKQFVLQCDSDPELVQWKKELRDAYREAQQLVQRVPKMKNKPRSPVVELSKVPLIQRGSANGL

GRK5 = GRK5 (Homo sapiens, UniProt P34947); assay: radiometric GRK5 inhibition assay (tubulin phosphorylation)
[1] = Thermodynamic solubility (Analiza Inc.); format: physicochemical; settings: for pH After Assay / solubility thermodynamic: Water; for pH After Assay: solubility assay; for solubility thermodynamic: n=1
Description: Experimental data collected by Analiza Inc. Experimental values represent an average of n=1 experiments.

[2] = read-out: GRK2 IC50, Table 1, μM ± SD
[3] = read-out: GRK2 IC50, Table 2, μM ± SD

GRK5, sequence (P34947 whole entry): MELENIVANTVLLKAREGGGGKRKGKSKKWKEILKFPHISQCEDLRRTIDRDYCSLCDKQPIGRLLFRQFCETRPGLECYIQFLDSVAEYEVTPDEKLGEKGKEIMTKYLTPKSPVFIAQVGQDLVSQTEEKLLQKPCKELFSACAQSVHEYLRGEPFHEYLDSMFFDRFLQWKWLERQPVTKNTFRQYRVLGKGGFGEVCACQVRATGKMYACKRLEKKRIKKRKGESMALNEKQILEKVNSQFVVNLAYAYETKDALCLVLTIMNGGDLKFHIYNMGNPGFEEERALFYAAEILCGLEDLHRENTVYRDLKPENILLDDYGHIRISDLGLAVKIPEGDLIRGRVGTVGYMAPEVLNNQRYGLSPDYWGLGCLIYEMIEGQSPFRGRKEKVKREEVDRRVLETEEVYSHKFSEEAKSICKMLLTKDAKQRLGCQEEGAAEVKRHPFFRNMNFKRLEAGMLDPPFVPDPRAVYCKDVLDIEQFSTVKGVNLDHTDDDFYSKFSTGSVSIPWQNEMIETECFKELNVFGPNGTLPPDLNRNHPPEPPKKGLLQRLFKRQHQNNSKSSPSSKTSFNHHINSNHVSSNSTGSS

SMILES: CC1=C(C(=O)Nc2ccc3[nH]ncc3c2)C(c2ccc(F)c(C(=O)NCc3ccccn3)c2)NC(=O)N1 (centres unmarked) [CCG 215022, reference compound]
IC50 (PKA; Table 1, μM ± SD): > 250 µM

SMILES: CCN(CC)CCNC(=O)c1c(C)[nH]c(/C=C2\C(=O)Nc3ccc(C(=O)N[C@H](C)c4ccccc4)cc32)c1C [Compound 5a, (R,Z)-3-((4-((2-(diethylamino)ethyl)carbamoyl)-3,5-dimethyl-1H-pyrrol-2-yl)methylene)-2-oxo-N-(1-phenylethyl)indoline-5-carboxamide]
IC50 (PKA; Table 1, μM ± SD): > 250 µM | IC50 (bovine GRK2; [2]): 1.1 ± 0.7 µM

SMILES: CCN(CC)CCNC(=O)c1c(C)[nH]c(/C=C2\C(=O)Nc3ccc(C(=O)N[C@@H](C)c4ccccc4)cc32)c1C [Compound 5b, (S,Z)-3-((4-((2-(diethylamino)ethyl)carbamoyl)-3,5-dimethyl-1H-pyrrol-2-yl)methylene)-2-oxo-N-(1-phenylethyl)indoline-5-carboxamide]
IC50 (bovine GRK2; [2]): 44 ± 18 µM

SMILES: C=CCNC(=O)c1c(C)[nH]c(/C=C2\C(=O)Nc3ccc(C(=O)N[C@H](C)c4ccccc4)cc32)c1C [Compound 5d, (R,Z)-3-((4-(allylcarbamoyl)-3,5-dimethyl-1H-pyrrol-2-yl)methylene)-2-oxo-N-(1-phenylethyl)indoline-5-carboxamide]
IC50 (PKA; Table 1, μM ± SD): > 250 µM | IC50 (bovine GRK2; [2]): 22 ± 10 µM

SMILES: C=CCCNC(=O)c1c(C)[nH]c(/C=C2\C(=O)Nc3ccc(C(=O)N[C@H](C)c4ccccc4)cc32)c1C [Compound 5f, (R,Z)-3-((4-(but-3-en-1-ylcarbamoyl)-3,5-dimethyl-1H-pyrrol-2-yl)methylene)-2-oxo-N-(1-phenylethyl)indoline-5-carboxamide]
IC50 (bovine GRK2; [2]): 630 ± 200 µM | IC50 (GRK5): 1.9 ± 0.05 µM | GRK2/GRK5 (GRK5; Table 1, ratio of IC50 values): 330

SMILES: Cc1[nH]c(/C=C2\C(=O)Nc3ccc(C(=O)N[C@H](C)c4ccccc4)cc32)c(C)c1[N+](=O)[O-] [Compound 7a, (R,Z)-3-((3,5-dimethyl-4-nitro-1H-pyrrol-2-yl)methylene)-2-oxo-N-(1-phenylethyl)indoline-5-carboxamide]
IC50 (bovine GRK2; [2]): 7.2 ± 3 µM

SMILES: Cc1[nH]c(/C=C2\C(=O)Nc3ccc(C(=O)N[C@H](C)c4ccccc4)cc32)c(C)c1NC(=O)CCl [Compound 9e, (R,Z)-3-((4-(2-chloroacetamido)-3,5-dimethyl-1H-pyrrol-2-yl)methylene)-2-oxo-N-(1-phenylethyl)indoline-5-carboxamide]
IC50 (PKA; Table 1, μM ± SD): > 250 µM | IC50 (bovine GRK2; [2]): 350 ± 100 µM | pH After Assay [1]: 5 | solubility thermodynamic ([1]; thermodynamic from solid): 75.1 µM and 35.7 µg/mL

SMILES: Cc1ccc([C@@H](C)NC(=O)c2ccc3c(c2)/C(=C/c2[nH]c(C)c(NC(=O)CCl)c2C)C(=O)N3)cc1 [Compound 9n, (R,Z)-3-((4-(2-chloroacetamido)-3,5-dimethyl-1H-pyrrol-2-yl)methylene)-2-oxo-N-(1-(p-tolyl)ethyl)indoline-5-carboxamide]
IC50 (bovine GRK2; [3]): 2.1 ± 1 µM | GRK2/GRK5 (GRK5; Table 2, ratio of IC50 values): 3 | pH After Assay [1]: 2.5 | solubility thermodynamic ([1]; thermodynamic from solid): 252 µM and 124 µg/mL

SMILES: Cc1[nH]c(/C=C2\C(=O)Nc3ccc(C(=O)N[C@H](C)c4ccc(Cl)cc4)cc32)c(C)c1NC(=O)CCl [Compound 9o, (R,Z)-3-((4-(2-chloroacetamido)-3,5-dimethyl-1H-pyrrol-2-yl)methylene)-N-(1-(4-chlorophenyl)ethyl)-2-oxoindoline-5-carboxamide]
IC50 (bovine GRK2; [3]): 0.7 ± 0.2 µM | pH After Assay [1]: 4 | solubility thermodynamic ([1]; thermodynamic from solid): 205 µM and 105 µg/mL

SMILES: Fc1ccc([C@@H]2CCNC[C@H]2COc2ccc3c(c2)OCO3)cc1 [paroxetine, reference compound]
IC50 (PKA; Table 1, μM ± SD): 850 ± 400 µM

More lines, now with the values ahead:

IC50 (bovine GRK2; [2]): 87 ± 30 µM
SMILES: C=CC(=O)Nc1c(C)[nH]c(/C=C2\C(=O)Nc3ccc(C(=O)N[C@H](C)c4ccccc4)cc32)c1C [Compound 9b, (R,Z)-3-((4-acrylamido-3,5-dimethyl-1H-pyrrol-2-yl)methylene)-2-oxo-N-(1-phenylethyl)indoline-5-carboxamide]

IC50 (bovine GRK2; [2]): 280 ± 110 µM
SMILES: C=CS(=O)(=O)Nc1c(C)[nH]c(/C=C2\C(=O)Nc3ccc(C(=O)N[C@H](C)c4ccccc4)cc32)c1C [Compound 9c, (R,Z)-3-((3,5-dimethyl-4-(vinylsulfonamido)-1H-pyrrol-2-yl)methylene)-2-oxo-N-(1-phenylethyl)indoline-5-carboxamide]

IC50 (bovine GRK2; [2]): 17 ± 10 µM | pH After Assay [1]: 5 | solubility thermodynamic ([1]; thermodynamic from solid): 125 µM and 64 µg/mL
SMILES: Cc1[nH]c(/C=C2\C(=O)Nc3ccc(C(=O)N[C@H](C)c4ccccc4)cc32)c(C)c1NC(=O)/C=C/CN(C)C [Compound 9f, (Z)-3-((4-((E)-4-(dimethylamino)but-2-enamido)-3,5-dimethyl-1H-pyrrol-2-yl)methylene)-2-oxo-N—((R)-1-phenylethyl)indoline-5-carboxamide]

IC50 (PKA; Table 1, μM ± SD): > 250 µM | IC50 (bovine GRK2; [2]): 6.7 ± 5 µM
SMILES: Cc1[nH]c(/C=C2\C(=O)Nc3ccc(C(=O)N[C@H](C)c4ccccc4)cc32)c(C)c1NC(=O)C(O)CCl (stereo partly drawn) [Compound 9h, (Z)-3-((4-(3-chloro-2-hydroxypropanamido)-3,5-dimethyl-1H-pyrrol-2-yl)methylene)-2-oxo-N—((R)-1-phenylethyl)indoline-5-carboxamide]

IC50 (PKA; Table 2, μM ± SD): > 250 µM | IC50 (bovine GRK2; [3]): 11 ± 6 µM | GRK2/GRK5 (GRK5; Table 2, ratio of IC50 values): 360
SMILES: Cc1cccc([C@@H](C)NC(=O)c2ccc3c(c2)/C(=C/c2[nH]c(C)c(NC(=O)CCl)c2C)C(=O)N3)c1 [Compound 9i, (R,Z)-3-((4-(2-chloroacetamido)-3,5-dimethyl-1H-pyrrol-2-yl)methylene)-2-oxo-N-(1-(m-tolyl)ethyl)indoline-5-carboxamide]

IC50 (bovine GRK2; [3]): 1.7 ± 2 µM | aqueous solubility relative to 9e ([1]; compared to 9e): less than 2 fold
SMILES: Cc1[nH]c(/C=C2\C(=O)Nc3ccc(C(=O)N[C@H](C)c4ccncc4)cc32)c(C)c1NC(=O)CCl [Compound 9k, (R,Z)-3-((4-(2-chloroacetamido)-3,5-dimethyl-1H-pyrrol-2-yl)methylene)-2-oxo-N-(1-(pyridin-4-yl)ethyl)indoline-5-carboxamide]

IC50 (bovine GRK2; [3]): 9.6 ± 5 µM | solubility thermodynamic [1]: 262 µM (≈ 125 µg/mL) | pH After Assay [1]: 4
SMILES: Cc1[nH]c(/C=C2\C(=O)Nc3ccc(C(=O)N[C@H](C)c4ccccn4)cc32)c(C)c1NC(=O)CCl [Compound 9l, (R,Z)-3-((4-(2-chloroacetamido)-3,5-dimethyl-1H-pyrrol-2-yl)methylene)-2-oxo-N-(1-(pyridin-2-yl)ethyl)indoline-5-carboxamide]

IC50 (PKA; Table 2, μM ± SD): > 250 µM | IC50 (bovine GRK2; [3]): 19 ± 10 µM
SMILES: Cc1[nH]c(/C=C2\C(=O)Nc3ccc(C(=O)N[C@H](C)c4cccc(Cl)c4)cc32)c(C)c1NC(=O)CCl [Compound 9m, (R,Z)-3-((4-(2-chloroacetamido)-3,5-dimethyl-1H-pyrrol-2-yl)methylene)-N-(1-(3-chlorophenyl)ethyl)-2-oxoindoline-5-carboxamide]

IC50 (bovine GRK2; [3]): 3.6 ± 2 µM
SMILES: Cc1[nH]c(/C=C2\C(=O)Nc3ccc(C(=O)N[C@H](C)c4ccc(F)cc4)cc32)c(C)c1NC(=O)CBr [Compound 9p, (R,Z)-3-((4-(2-bromoacetamido)-3,5-dimethyl-1H-pyrrol-2-yl)methylene)-N-(1-(4-fluorophenyl)ethyl)-2-oxoindoline-5-carboxamide]

IC50 (PKA; Table 2, μM ± SD): 69 ± 10 µM | IC50 (bovine GRK2; [3]): 15 ± 7 µM
SMILES: Cc1[nH]c(/C=C2\C(=O)Nc3ccc(C(=O)NC4(c5ccccc5)COC4)cc32)c(C)c1NC(=O)CCl [Compound 9t, (Z)-3-((4-(2-chloroacetamido)-3,5-dimethyl-1H-pyrrol-2-yl)methylene)-2-oxo-N-(3-phenyloxetan-3-yl)indoline-5-carboxamide]

IC50 (bovine GRK2; [2]): 120 ± 80 µM
SMILES: Cc1[nH]c(/C=C2\C(=O)Nc3ccc(C(=O)N[C@H](C)c4ccccc4)cc32)c(C)c1NC(=O)/C(C#N)=C/C(C)(C)C [Compound 10a, (Z)-3-((4-((E)-2-cyano-4,4-dimethylpent-2-enamido)-3,5-dimethyl-1H-pyrrol-2-yl)methylene)-2-oxo-N—((R)-1-phenylethyl)indoline-5-carboxamide]

IC50 (bovine GRK2): > 250 µM
SMILES: Cc1[nH]c(/C=C2\C(=O)Nc3ccc(C(=O)N[C@H](C)c4ccccc4)cc32)c(C)c1NC(=O)C1CO1 (stereo partly drawn) [Compound 10l, (Z)-3-((3,5-dimethyl-4-(oxirane-2-carboxamido)-1H-pyrrol-2-yl)methylene)-2-oxo-N—((R)-1-phenylethyl)indoline-5-carboxamide]
